Experimental data taken from patent US10501479B2, “Benzenesulfonyl-asymmetric ureas and medical uses thereof” (HELSINN HEALTHCARE SA, priority 2016, dated 2019).

How the values were obtained:
[1] = Plasma protein binding (PPB), mouse; format: in vitro ADME
[2] = molecular target: T1, GHSR-1a (HEK293/GHSR1a cell line) (Homo sapiens, UniProt Q92847); test: Ghrelin antagonist potency (IC50) with calcium FLIPR assay, ghrelin 10 nM; format: cell-based; settings: ghrelin antagonist potency, read-out: IC50 (Activity)
T1 construct: expressed in transfected cells; host or cells: HEK293/GHSR1a cell line
T1 sequence (Q92847 whole entry): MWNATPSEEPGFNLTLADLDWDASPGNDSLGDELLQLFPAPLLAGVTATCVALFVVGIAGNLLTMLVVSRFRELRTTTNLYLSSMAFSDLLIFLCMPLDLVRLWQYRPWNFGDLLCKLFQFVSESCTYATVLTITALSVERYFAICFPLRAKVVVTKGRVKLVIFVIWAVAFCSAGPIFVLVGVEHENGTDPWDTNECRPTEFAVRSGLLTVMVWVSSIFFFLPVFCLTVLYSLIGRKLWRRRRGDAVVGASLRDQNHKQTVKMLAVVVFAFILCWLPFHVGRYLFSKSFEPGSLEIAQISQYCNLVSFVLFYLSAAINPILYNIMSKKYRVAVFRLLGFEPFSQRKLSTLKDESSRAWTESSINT
In short: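 Dye preload 30-60 min, RT or 37° C; compound in DMSO. Agonist mode: compound at t=20 sec, Ca2+ read 2 min. Antagonist mode: compound + ghrelin 10 nM at t=20 sec, 2 min read. EC50/IC50 from dose-response curves.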

[3] = Metabolic stability in human liver microsomes; format: in vitro ADME
In short: (§1)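 Parent compound was measured by LC-MS/MS at 0, 10, 30 and 90 min after NADPH-initiated incubation with liver microsomes at 37 °C. Buffer was 100 mM potassium phosphate, pH 7.4; time-zero concentration was taken before NADPH addition.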

[4] = Metabolic stability in rat liver microsomes; format: in vitro ADME
Description: (§2) Metabolic Stability Study
(§3) The metabolic stability of compounds in human, dog, rat and mouse liver microsomes was performed according the experimental conditions reported below:
(§4) • a) Prepare the following 5 stock solutions: • 1. Test compound stock solutions: dilute 10 mM solution of dextromethorphan (Dtr) in DMSO, 10 mM solution of diphenhydramine (DPA) in DMSO, 10 mM solution of omeprazole (Ome) in DMSO, 10 mM solution of verapamil (Ver) in DMSO, and 10 mM of an inverse agonist compound in DMSO to 0.25 mM solution each with acetonitrile/water (70/30). • 2. Buffer: 100 mM potassium phosphate Buffer (PBS) at pH 7.4 • 3. Liver microsomes (20 mg/ml): Thaw in 37° C. water bath quickly • 4. 2000 μL: of NADPH regenerating system (1.3 mM). Place this system on ice before use:
(§5) • 5. […] The test compound concentration in the wells, measured by LC-MS/MS, represents the concentration at time=0. • f) To determine the test compound concentration when t≠0, pre-incubate the NADPH regenerating system and the incubation plate containing the remaining 320 μL of incubation mixture (microsomes protein and test compound) for 5 minutes at 37° C. • g) Start the incubation reaction by adding 80 μL NADPH regenerating system to each well containing the remaining 320 μL incubation mixture. • h) After 10 min., 30 min., and 90 min. of incubation at 37° C., transfer 100 μL of the incubation mixture (microsomes protein, test compound, and NADPH) into the wells of a stop plate pre-filled with 300 μL of the cold quench solution. Shake well. • i) Centrifuge the stop plate at 5000×g for 10 minutes. Collect and dilute the supernatant 3 times with distilled water. Sample and analyze the test compound concentration for all the wells by LC-MS/MS. Animal PK Studies via i.v. (intravenous), p.o. (orally) and s.c. (subcutaneous) administrations

[5] = molecular target: T2, recombinant human ghrelin receptor (HEK293/GRLN) (Homo sapiens, UniProt Q92847); test: Ghrelin inverse agonist potency (EC50) with IP-1 (IP-One HTRF) assay; format: cell-based; settings: inverse agonist potency, IP-1 assay; read-out: EC50 (Activity)
T2 construct: expressed in transfected cells
T2 sequence (Q92847 whole entry): as above
In short: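 HEK293/GRLN cells were seeded 18-22 hours before the test, then exposed to compound in stimulation buffer for 1 hour at 37° C, 5% CO2. IP-1 was detected by IP-One HTRF (IP1-d2 plus Tb-cryptate, 1 hour RT), reading 620 and 665 nm; the inverse agonist EC50 was derived from this.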

[6] = Metabolic stability in mouse liver microsomes; format: in vitro ADME
In short: as §1

[7] = Plasma protein binding (PPB), human; format: in vitro ADME; settings: read-out: PPB (H)
[8] = Animal PK study in mouse via i.v., p.o. and s.c. administration; format: in vivo; settings: for PK CLiv / PK Vdiv / PK t1/2iv: i.v.; for PK CLpo / PK Vdpo / PK t1/2po: p.o.
In short: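 Single i.v. (tail vein), s.c. (neck scruff) or p.o. (gavage) dose to mice or rats; oral vehicle 1–5% DMSO/0.5% methylcellulose, i.v./s.c. vehicle 1–5% DMSO in 20% HP-β-cyclodextrin. Plasma sampled 0.083 (i.v./s.c.) or 0.25 to 24 h, analyzed by LC-MS/MS.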

[9] = Metabolic stability in dog liver microsomes; format: in vitro ADME
Description: as §2, §3, §4, §5

male C57BL/6J mice = test: Food intake test in mouse (GHSR1a inverse agonists), cumulative food intake at 1, 2, 4, 8 and 24 hrs; format: in vivo
Description: Evaluation of Inverse Agonist on Food Intake Test in Mouse:
Male C57BL/6J mice, 18-22 g body weight, were fasted overnight (16 h before compound administration) and placed in a regular light dark cycle (6:00-18:00 light/18:00-6:00 dark). After 1 wk acclimation, animals were sorted into two groups (n=6 each, 2 per cage) based on body weight. Animals in group one were be treated with vehicle and animals in group 2 were treated with the test agent (n=6 for each group). The cumulative food intake was evaluated at 1, 2, 4, 8 and 24 hrs after drug or vehicle treatment. Food intake was measured by subtracting uneaten food from the initial premeasured food.
Food Intake Study—Evaluation of GHSR1a inverse agonists on Food Intake Test in Mouse:
Twelve male C57BL/6J mice, weighing 18-22 g each, were fasted overnight (16 h before compound administration) and placed in a regular light dark cycle (6:00-18:00 light/18:00-6:00 dark). After 1 week acclimation, animals were sorted into two groups (n=6 each, 2 per cage) based on body weight. Animals in group one were treated with carrier minus the test compound. (control group) and animals in group 2 were treated with carrier with the test compound (experimental group). The cumulative food intake was evaluated at 1, 2, 4, 8 and 24 hrs after experimental or control treatment. Food intake was measured by subtracting uneaten food from the initial premeasured food.

[10] = Plasma protein binding (PPB), rat; format: in vitro ADME; settings: read-out: PPB (R) (converted)
[11] = Plasma protein binding (PPB), dog; format: in vitro ADME; settings: read-out: PPB (D) (converted)

Row | SMILES | fraction unbound [1] | IC50 [2] | Metabolic Stability Study H = human [3] | Metabolic Stability Study R = rat [4] | EC50 [5] | Metabolic Stability Study M = mouse [6] | fraction unbound [7] | PK F [8] | PK CLiv [8] | PK Vdiv [8] | PK t1/2iv [8] | PK CLpo [8] | PK Vdpo [8] | PK t1/2po [8] | Metabolic Stability Study D = dog [9] | Food Intake Study (male C57BL/6J mice; 5 mg/kg sc fasted mice) | Food Intake Study (male C57BL/6J mice; 30 mg/kg po fasted mice) | fraction unbound [10] | fraction unbound [11]
1 | C[C@H](NC(=O)Nc1ccc(S(=O)(=O)Nc2ccc(CC(C)(C)N)cc2)cc1)c1ccc(-c2cnccn2)c(Cl)c1Cl [H0906, (S)-N-(4-(2-amino-2-methylpropyl)phenyl)-4-(3-(1-(2,3-dichloro-4-(pyrazin-2-yl)phenyl)ethyl)ureido) benzenesulfonamide] | 0.0004 | 18.9 nM | 19.9 µL/min/mg | 13.6 µL/min/mg | 6.8 nM | 24.4 µL/min/mg | 0.0016 | 0.1% | 3 mL/min/kg | 0.27 L/kg | 1.03 h | 3991.2 mL/min/kg | 479.77 L/kg | 1.39 h |  |  |  |  | 
2 | CNC(C)(C)Cc1ccc(NS(=O)(=O)c2ccc(NC(=O)N[C@@H](C)c3ccc(-c4cnccn4)c(Cl)c3Cl)cc2)cc1 [H0941, (S)-4-(3-(1-(2,3-dichloro-4-(pyrazin-2-yl)phenyl)ethyl)ureido)-N-(4-(2-methyl-2-(methylamino)propyl)phenyl) benzenesulfonamide] | 0.0005 | 7.7 nM | 47.7 µL/min/mg | 36.2 µL/min/mg | 2.8 nM | 66.2 µL/min/mg | 0.0002 |  |  |  |  |  |  |  | 48.2 µL/min/mg |  |  |  | 
3 | C[C@H](NC(=O)Nc1ccc(S(=O)(=O)Nc2ccc(CC(C)(C)N(C)C)cc2)cc1)c1cccc(Cl)c1Cl [H0967, (S)-4-(3-(1-(2,3-dichlorophenyl)ethyl)ureido)-N-(4-(2-(dimethylamino)-2-methylpropyl)phenyl) benzenesulfonamide] |  | 16 nM | 38.2 µL/min/mg |  | 4.7 nM | 58 µL/min/mg |  | 0.2% | 39 mL/min/kg | 8.62 L/kg | 2.56 h | 11620 mL/min/kg | 2326.2 L/kg | 2.31 h |  | 30 mg/kg po fasted - inh 5 mg/kg sc fasted - inh | 30 mg/kg po fasted - inh 5 mg/kg sc fasted - inh |  | 
4 | CC(C)(N)Cc1ccc(NS(=O)(=O)c2ccc(NC(=O)NCc3cccc(Cl)c3Cl)cc2)cc1 [H0968, N-(4-(2-amino-2-methylpropyl)phenyl)-4-(3-(2,3-dichlorobenzyl)ureido) benzenesulfonamide] |  | 44 nM | 32.5 µL/min/mg |  | 5.7 nM | 27.4 µL/min/mg |  |  |  |  |  |  |  |  |  |  | 30 mg/kg po fasted - inh |  | 
5 | C[C@H](NC(=O)Nc1ccc(S(=O)(=O)Cc2ccc(CC(C)(C)N)cc2)cc1)c1cccc(Cl)c1Cl [H0969, (S)-1-(4-((4-(2-amino-2-methylpropyl)benzyl)sulfonyl)phenyl)-3-(1-(2,3-dichlorophenyl)ethyl)urea] |  | 53 nM | 19.5 µL/min/mg |  | 18.9 nM | 74.4 µL/min/mg |  | 1.3% | 7.67 mL/min/kg | 1.97 L/kg | 2.96 h | 450.2 mL/min/kg | 168.2 L/kg | 4.32 h |  |  | 30 mg/kg po fasted - inh |  | 
6 | Cl.O=C(NCc1cccc(Cl)c1Cl)Nc1ccc(S(=O)(=O)Cc2ccc3c(c2)CNC3)cc1 [H1057, 1-(2,3-dichlorobenzyl)-3-(4-((isoindolin-5-ylmethyl)sulfonyl)phenyl)urea] | 0.005 | 19.3 nM | 12.6 µL/min/mg |  | 6.9 nM | 10.8 µL/min/mg | 0.005 | 1.6% | 26.2 mL/min/kg | 2.18 L/kg | 0.96 h | 1371 mL/min/kg | 368.9 L/kg | 3.11 h |  |  |  |  | 
7 | C[C@H](NC(=O)Nc1ccc(S(=O)(=O)Cc2ccc(CO)cc2)cc1)c1cccc(Cl)c1Cl [H1060, (S)-1-(1-(2,3-dichlorophenyl)ethyl)-3-(4-((4-(hydroxymethyl)benzyl)sulfonyl)phenyl)urea] | 0.0019 | 280 nM | 40 µL/min/mg |  | 40.8 nM | 108.7 µL/min/mg | 0.0013 | 18.8% | 68.8 mL/min/kg | 8.25 L/kg | 1.37 h | 368 mL/min/kg | 22.4 L/kg | 0.7 h |  |  |  | 0.0018 | 0.0012
8 | C[C@H](NC(=O)Nc1ccc(S(=O)(=O)Nc2ccc(CO)cc2)cc1)c1cccc(Cl)c1Cl [H1062, (S)-4-(3-(1-(2,3-dichlorophenyl)ethyl)ureido)-N-(4-(hydroxymethyl)phenyl) benzenesulfonamide] | 0.0019 | 222 nM | 32.4 µL/min/mg |  | 58 nM | 67.2 µL/min/mg | 0.0012 |  |  |  |  |  |  |  |  |  |  | 0.0012 | 0.0017
9 | C[C@H](NC(=O)Nc1ccc(S(=O)(=O)Cc2ccc3c(c2)CNC3)cc1)c1ccccc1 [H1215, (S)-1-(4-((isoindolin-5-ylmethyl)sulfonyl)phenyl)-3-(1-phenylethyl)urea] | 0.093 | 12.4 nM | 21 µL/min/mg | 18.5 µL/min/mg | 4.6 nM | 13.7 µL/min/mg | 0.097 |  |  |  |  |  |  |  | 16.6 µL/min/mg |  |  | 0.065 | 
